For series [1], the system named is MDA-MB-436 cells. As to the kind of experiment: Inhibition of proliferation of MDA-MB-436 cells (CellTiter-Glo). To be noted: Homo sapiens, MDA-MB-436, 168 h, 7 days incubation. The format is cell-based. An outline of the steps:
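MDA-MB-436 cells seeded at 500-1000 cells/well, allowed to attach overnight, then treated with 9 concentrations from 10000 to 0.152 nM final (4-fold steps) in triplicate for 7 days at 37°C, 5% CO2. Viability by CellTiter-Glo luminescence; IC50 from fitted curve.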
Background: ATP-based viability assays read luminescence as a measure of living cells.

Series [2] addresses PARP2 (Homo sapiens, UniProt Q9UGN5). In words: biochemical.
Series [3] deals with DLD-1 BRCA2(-/-) cells. In words: Inhibition of proliferation of DLD-1 BRCA2(-/-) cells (CTG method). It counts as cell-based. To be noted: Homo sapiens, DLD-1, 168 h; 7 days incubation, CellTiter-Glo. An outline of the steps: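 DLD-1 BRCA2(-/-) cells, 1,000 per well, attached overnight, then exposed to compound at final 10000 to 0.152 nM (4-fold series) in triplicate for 7 days at 37 °C, 5% CO2. Viability by CellTiter-Glo luminescence; IC50 for proliferation inhibition from a fitted curve.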

Series [4] concerns the target PARP1 (Homo sapiens, UniProt P09874). In words: Inhibition of PARP1 enzyme activity (ELISA, chemiluminescence). It counts as biochemical. To be noted: for IC50: ELISA, histone-coated plate, NAD+, 60 min at 25 °C; for Selectivity PARP2/PARP1: ratio of PARP2 IC50 to PARP1 IC50. On the technique in general: In an ELISA, binding on a coated surface is turned into a signal by an enzyme label.

Series [5] in a line: Pharmacokinetics in mice after intravenous injection or gavage. To be noted: BALB/c, mouse, plasma.
Description: The compounds of the present invention were administered to test animals in the form of 5% DMSO + 30% PEG400 + 65% physiological saline, 10% DMSO + 10% Kolliphor HS15 + 80% Saline, 10% DMSO + 89% (25% SBE-B-CD) + (2% HCl), 20% PEG400 + 80% sterile water for injection, or 10% DMA+ 10% HS15 + 30% PEG400 + 50% sterile aqueous solution for injection. Animals were fasted for 12 hours before administration but had free access to water. For the intravenous administration group, the dose was 1 mg/kg. Blood samples (approximately 0.15 mL) were collected intravenously at the following time points after administration: 0.083, 0.25, 0.5, 1.0, 2.0, 4.0, 6.0, 8.0 and 24 h (dogs) or 0.083, 0.25, 0.5, 1.0, 2.0, 5.0, 7.0 and 24 h (mice and rats) or 0.083, 0.25, 0.5, 1.0, 2.0, 6.0, 8.0 and 24 h (monkeys). EDTA-K2 was pre-added to the blood collection tube as an anticoagulant. The blood samples were centrifuged at 12,000 rpm for 2 minutes, and plasma was collected and stored at -20 °C or - 70 °C. For the gavage administration group, the dosage was 1 mg/kg (mice, dogs, and monkeys) or 5 mg/kg (rats). After administration, venous blood samples (approximately 0.15 mL) were collected at the following time points: 0.25, 0.5, 1.0, 2.0, 4.0, 6.0, 8.0, and 24 h (dogs) or 0.25, 0.5, 1.0, 2.0, 5.0, 7.0, and 24 h (mice and rats) or 0.25, 0.5, 1.0, 2.0, 6.0, 8.0, and 24 h (monkeys). EDTA-K2 was pre-added to the blood collection tube as an anticoagulant. The blood samples were centrifuged at 12,000 rpm for 2 minutes, and plasma was collected and stored at -20 °C or -70 °C.
The collected plasma samples were processed (frozen plasma was thawed at room temperature, vortexed for 15 s to mix, 10-20 µL of plasma was taken, 120-150 µL of acetonitrile solution containing internal standard was added, vortexed for 5 min to mix, centrifuged at 4,000 rpm for 5 min, 100 µL of supernatant was taken, and 120-150 Ml/water (v/v = 1/1) was added and mixed). The concentration of compounds in the plasma was then analyzed by LC-MS/MS.

One may read the IC50 as the concentration at which inhibition is half-maximal. A higher IC50 goes with a need for much substance. For orientation: AUC(0-t) means exposure summed from dosing to a finite time, without extrapolation to infinity. In general, Cmax refers to the peak of the concentration-time curve. A word on the half-life: it is the time in which the quantity being followed falls by half. Read a high half-life as slow decline.

Chain of PARP1 (P09874 whole entry): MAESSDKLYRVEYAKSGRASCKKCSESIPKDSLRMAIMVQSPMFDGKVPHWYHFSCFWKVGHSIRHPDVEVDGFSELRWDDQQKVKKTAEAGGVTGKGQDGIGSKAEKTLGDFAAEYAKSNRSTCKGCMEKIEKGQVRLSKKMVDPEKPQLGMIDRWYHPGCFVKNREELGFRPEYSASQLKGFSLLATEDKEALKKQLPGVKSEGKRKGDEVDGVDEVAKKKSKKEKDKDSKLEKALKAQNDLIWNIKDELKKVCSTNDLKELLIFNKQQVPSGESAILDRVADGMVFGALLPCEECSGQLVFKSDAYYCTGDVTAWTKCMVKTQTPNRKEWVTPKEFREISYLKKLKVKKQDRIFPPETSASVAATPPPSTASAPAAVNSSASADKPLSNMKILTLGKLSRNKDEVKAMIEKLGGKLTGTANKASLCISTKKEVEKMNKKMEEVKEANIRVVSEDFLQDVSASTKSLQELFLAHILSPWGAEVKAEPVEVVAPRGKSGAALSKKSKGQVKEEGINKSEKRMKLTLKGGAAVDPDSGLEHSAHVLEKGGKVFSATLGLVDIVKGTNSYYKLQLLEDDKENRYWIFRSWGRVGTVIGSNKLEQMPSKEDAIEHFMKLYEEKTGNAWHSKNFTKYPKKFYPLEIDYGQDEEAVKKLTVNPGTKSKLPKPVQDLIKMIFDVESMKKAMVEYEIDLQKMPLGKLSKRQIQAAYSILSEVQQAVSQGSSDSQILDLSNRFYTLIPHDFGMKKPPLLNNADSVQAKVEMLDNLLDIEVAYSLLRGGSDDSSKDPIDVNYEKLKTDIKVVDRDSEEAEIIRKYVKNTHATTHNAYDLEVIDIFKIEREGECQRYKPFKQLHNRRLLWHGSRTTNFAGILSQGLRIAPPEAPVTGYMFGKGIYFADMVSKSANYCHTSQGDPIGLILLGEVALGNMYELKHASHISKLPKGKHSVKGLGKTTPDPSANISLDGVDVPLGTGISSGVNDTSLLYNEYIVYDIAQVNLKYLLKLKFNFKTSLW
Chain of PARP2 (Q9UGN5 whole entry): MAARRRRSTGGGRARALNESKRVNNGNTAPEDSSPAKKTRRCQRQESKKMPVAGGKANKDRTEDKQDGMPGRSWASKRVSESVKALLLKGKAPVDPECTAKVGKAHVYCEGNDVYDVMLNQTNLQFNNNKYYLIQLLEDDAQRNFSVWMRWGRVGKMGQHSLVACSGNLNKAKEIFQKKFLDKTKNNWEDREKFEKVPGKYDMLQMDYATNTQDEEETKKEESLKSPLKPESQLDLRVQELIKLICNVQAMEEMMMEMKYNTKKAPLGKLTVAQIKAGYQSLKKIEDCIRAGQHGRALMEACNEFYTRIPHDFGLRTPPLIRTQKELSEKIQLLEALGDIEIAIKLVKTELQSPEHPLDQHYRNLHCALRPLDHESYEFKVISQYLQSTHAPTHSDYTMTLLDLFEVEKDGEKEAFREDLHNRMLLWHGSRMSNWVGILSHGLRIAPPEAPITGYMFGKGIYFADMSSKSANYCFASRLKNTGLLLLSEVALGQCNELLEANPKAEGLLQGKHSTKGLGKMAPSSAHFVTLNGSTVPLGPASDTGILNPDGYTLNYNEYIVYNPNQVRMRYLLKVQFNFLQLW

`CNC(=O)c1ccc(N2CCN(Cc3cc(Nc4ccc(F)cc4)c4nc(C)c(=O)[nH]c4c3)CC2)c(F)n1` [Example 33, 6-fluoro-5-(4-((8-((4-fluorophenyl)amino)-2-methyl-3-oxo-3,4-dihydroquinoxalin-6-yl)methyl)piperazin-1-yl)-N-methylpicolinamide]: the IC50 in series [1] was found to be 4.1 nM; in series [2], 234 nM; in series [3], 9.3 nM; in series [4], 1.2 nM. Besides, in series [4], the “Selectivity PARP2/PARP1” value came out at 188.8.
As to `CC#Cc1cc(CN2CC=C(c3ccc(C(=O)NC4CC4)nc3F)CC2)cc2[nH]c(=O)c(C)nc12` [Example 39, N-cyclopropyl-2-fluoro-1'-((2-methyl-3-oxo-8-(prop-1-yn-1-yl)-3,4-dihydroquinoxalin-6-yl)methyl)-1',2',3',6'-tetrahydro-[3,4'-bipyridine]-6-carboxamide], the IC50 is < 0.038 nM in series [1], 599 nM in series [2], 7.7 nM in series [3] and 2.9 nM in series [4]. Further, the “Selectivity PARP2/PARP1” value in series [4] is on record as 206.8.
As to `Cc1nc2c(OC(F)F)cc(CN3CC=C(c4ccc(C(=O)NC5CC5)nc4F)CC3)cc2[nH]c1=O` [Example 42, N-cyclopropyl-1'-((8-(difluoromethoxy)-2-methyl-3-oxo-3,4-dihydroquinoxalin-6-yl)methyl)-2-fluoro-1',2',3',6'-tetrahydro-[3,4'-bipyridine]-6-carboxamide], the IC50 came to 0.3 nM in series [1], 221 nM in series [2], 7 nM in series [3] and 0.9 nM in series [4]. The AUC(0-t) was 18100 ng·h/mL in series [5] (iv, 2 mg/kg) and 61500 ng·h/mL in series [5] (po, 5 mg/kg). Also, the Cmax in series [5] (iv, 2 mg/kg) came to 8180 ng/mL; in series [5] (po, 5 mg/kg), 15100 ng/mL. Also, the half-life is 2.5 h in series [5] (iv, 2 mg/kg) and 2.5 h in series [5] (po, 5 mg/kg). Further, in series [4], the “Selectivity PARP2/PARP1” value came out at 239.7.
On to `CC#Cc1cc(CN2CCN(c3ccc(C#N)cn3)CC2)cc2[nH]c(=O)c(C)nc12` [Example 43, 6-(4-((2-methyl-3-oxo-8-(prop-1-yn-1-yl)-3,4-dihydroquinoxalin-6-yl)methyl)piperazin-1-yl)nicotinonitrile], for which the IC50 in series [1] was found to be 8 nM; in series [2] it was 583 nM; in series [3], 27 nM; in series [4] it was 1.5 nM. For the same molecule, the “Selectivity PARP2/PARP1” value in series [4] amounted to 398.1.
Regarding `CNC(=O)c1ccc(C2=CCN(Cc3cc(OC(F)F)c4nc(C)c(=O)[nH]c4c3)CC2)cn1` [Example 44, 1'-((8-(difluoromethoxy)-2-methyl-3-oxo-3,4-dihydroquinoxalin-6-yl)methyl)-N-methyl-1',2',3',6'-tetrahydro-[3,4'-bipyridine]-6-carboxamide], the IC50 is 1.3 nM in series [1], 148 nM in series [2], 9.3 nM in series [3] and 0.8 nM in series [4]. For the same molecule, the “Selectivity PARP2/PARP1” value in series [4] turned out to be 184.1.
For `CC#Cc1cc(CN2CCN(c3ccc(C(=O)NC)nc3C)CC2)c(F)c2[nH]c(=O)c(C)nc12` [Example 45, 5-(4-((5-fluoro-2-methyl-3-oxo-8-(prop-1-yn-1-yl)-3,4-dihydroquinoxalin-6-yl)methyl)piperazin-1-yl)-N,6-dimethylpicolinamide], the IC50 was 11.1 nM in series [1], > 10000 nM in series [2], 12 nM in series [3] and 7.7 nM in series [4]. Also, the “Selectivity PARP2/PARP1” value in series [4] is >1290.7.
For `CC#Cc1cc(CN2CCN(c3ccc(C(=O)NC4CC4)nc3F)CC2)c(F)c2[nH]c(=O)c(C)nc12` [Example 47, N-cyclopropyl-6-fluoro-5-(4-((5-fluoro-2-methyl-3-oxo-8-(prop-1-yn-1-yl)-3,4-dihydroquinoxalin-6-yl)methyl)piperazin-1-yl)picolinamide], in that order: 0.6 nM, > 10000 nM, 18.6 nM, 6.9 nM and >1456.3.
Consider `CNC(=O)c1ccc(N2CCN(Cc3cc(OC(F)F)c4nc(C)c(=O)[nH]c4c3)CC2)cn1` [Example 49, 5-(4-((8-(difluoromethoxy)-2-methyl-3-oxo-3,4-dihydroquinoxalin-6-yl)methyl)piperazin-1-yl)-N-methylpicolinamide], for which the IC50 in series [1] was 9.1 nM; in series [2] it was 54 nM; in series [3], 12.9 nM; in series [4], 3.2 nM. Also, the “Selectivity PARP2/PARP1” value in series [4] is reported as 17.0.
For `CNC(=O)c1ccc(N2CCN(Cc3cc(OC(F)F)c4nc(C5CC5)c(=O)[nH]c4c3)CC2)c(F)n1` [Example 54, 5-(4-((2-cyclopropyl-8-(difluoromethoxy)-3-oxo-3,4-dihydroquinoxalin-6-yl)methyl)piperazin-1-yl)-6-fluoro-N-methylpicolinamide], the IC50 was 28.7 nM in series [1], 203 nM in series [2], 18.4 nM in series [3] and 7.6 nM in series [4]. The “Selectivity PARP2/PARP1” value in series [4] was found to be 26.7.
Turning to `CNC(=O)c1ccc(N2CCN(Cc3cc(OC(F)F)c4cc(C)c(=O)[nH]c4c3)CC2)c(F)n1` [Example 55, 5-(4-((5-(difluoromethoxy)-3-methyl-2-oxo-1,2-dihydroquinolin-7-yl)methyl)piperazin-1-yl)-6-fluoro-N-methylpicolinamide], the IC50 is < 0.038 nM in series [1], 14.3 nM in series [2], 3.9 nM in series [3] and 1.9 nM in series [4]. In series [4], the “Selectivity PARP2/PARP1” value was determined as 7.6.
In the same order, the values of `Cc1nc2c(OC(F)F)cc(CN3CCN(c4ccc(C(=O)N[C@H]5C[C@H]5F)nc4F)CC3)cc2[nH]c1=O` [Example 57, 5-(4-((8-(difluoromethoxy)-2-methyl-3-oxo-3,4-dihydroquinoxalin-6-yl)methyl)piperazin-1-yl)-6-fluoro-N-((1S,2R)-2-fluorocyclopropyl)picolinamide] are 1.7 nM, 79.5 nM, 2.9 nM, 1.7 nM and 47.3.
In the same order, the values of `CNC(=O)c1ccc2c(n1)COC[C@H]1CN(Cc3cc(OC(F)F)c4nc(C)c(=O)[nH]c4c3)CCN21` [Example 59, (R)-3-((8-(difluoromethoxy)-2-methyl-3-oxo-3,4-dihydroquinoxalin-6-yl)methyl)-N-methyl-2,3,4,4a,5,7-hexahydro-1H-pyrazino[2,1-c]pyrido[3,2-e][1,4]oxazepine-9-carboxamide] are 26.3 nM, 1220 nM, 8 nM, 1.9 nM and 650.4.
Turning to `CNC(=O)c1ccc(N2CCN(Cc3cc(OC(F)F)c4nc(C)c(=O)[nH]c4c3F)CC2)c(C)n1` [Example 60, 5-(4-((8-(difluoromethoxy)-5-fluoro-2-methyl-3-oxo-3,4-dihydroquinoxalin-6-yl)methyl)piperazin-1-yl)-N,6-dimethylpicolinamide], the IC50 in series [1] turned out to be 31.2 nM; in series [2], 5820 nM; in series [3] it was 8.58 nM; in series [4], 2.9 nM. Besides, the “Selectivity PARP2/PARP1” value in series [4] is 2030.7.
As to `CC#Cc1cc(CN2CCN3c4ccc(C(=O)NC)nc4COC[C@H]3C2)cc2[nH]c(=O)c(C)nc12` [Example 63, (R)-N-methyl-3-((2-methyl-3-oxo-8-(prop-1-yn-1-yl)-3,4-dihydroquinoxalin-6-yl)methyl)-2,3,4,4a,5,7-hexahydro-1H-pyrazino[2,1-c]pyrido[3,2-e][1,4]oxazepine-9-carboxamide], the IC50 in series [1] was found to be 6.2 nM; in series [2], 1280 nM; in series [3], 16.1 nM; in series [4] it was 3.2 nM. Also, the “Selectivity PARP2/PARP1” value in series [4] was 398.8.
In the same order, the values of `CNC(=O)c1ccc(N2CCN(Cc3cc(OC4CCCC4)c4nc(C)c(=O)[nH]c4c3)CC2)c(F)n1` [Example 71, 5-(4-((8-(cyclopentoxy)-2-methyl-3-oxo-3,4-dihydroquinoxalin-6-yl)methyl)piperazin-1-yl)-6-fluoro-N-methylpyridine amide] are 9.3 nM, 1290 nM, 12.3 nM, 1.5 nM and 873.7.
In the same order, the values of `CNC(=O)c1ccc(N2CCN(Cc3cc(OC4CCCCC4)c4nc(C)c(=O)[nH]c4c3)CC2)c(F)n1` [Example 72, 5-(4-((8-(cyclohexyloxy)-2-methyl-3-oxo-3,4-dihydroquinoxalin-6-yl)methyl)piperazin-1-yl)-6-fluoro-N-methylpyridine amide] are 12 nM, 992 nM, 9.1 nM, 1.3 nM and 756.9.

The values are drawn from patent publication EP4755880A1, “SUBSTITUTED NITROGEN-CONTAINING BICYCLIC COMPOUND AND USE THEREOF” (Sunshine Lake Pharma Co., Ltd., priority 2023, dated 2025).
